Data published in patent US10716787B2, “Combinations” (ASTEX THERAPEUTICS LTD, priority 2014, dated 2020).

Columns and labels:
parental NCI-H1581 cells = test: Alamar blue proliferation assay, parental NCI-H1581 cells; assay type: cell-based; conditions: for IC50: 4 days incubation
Method: (§1) Therefore, NCI-H1581 cells were plated onto 10 cm Collagen I coated plates and placed in an incubator at 37° C., 5% CO2. […] In the case of the parental cells with or without DMSO control, when the cells reached the confluence close to 100% they were trypsinized and re-plated back on the plate. […] After about 3 weeks from the initial treatment, cells were taken out of the plate by trypsinization and passaged on new plate for further expanding. […] (test 1)
(§2) Therefore the parental and resistant cells were profiled on phosphoRTK (receptor tyrosine kinase) arrays, and also for Met total protein expression and phosphorylation. The sensitivity of the cells to selected Met inhibitors (compound C and D) in the Alamar blue proliferation assay was also tested.
(§3) Cells were seeded in 180 μl of medium at optimized cell densities in black 96 well plates with clear flat bottom. The outer wells were filled with 180 μl of medium. Cells were incubated for 24 hours at 37° C. and 5% CO2.
(§4) Next day compound dilutions were prepared in a 96 well plate with round bottom (Corning #3365). A 50× dilution of the compound was prepared in medium, 4 μl of compound stock in 196 μl of medium in a 96 well plate (Corning #3585).
(§5) Compound/medium plates were placed on a shaker for 10 minutes and then 20 μl of compound in medium was added to the cells (10× dilution). Cells were incubated at 37° C. and 5% CO2 for 4 days until alamarBlue® readout.
(§6) After 4 days of incubation with compound: Add 40 μl of alamarBlue® ready to use mix to each well. Incubate plates at 37° C. and 5% CO2. Measure plates after 4 or 6 hours of incubation (depends on cell line). Shake plates and measure RFU at ex.: 544 nm and em.: 590 nm
(§7) The alamarBlue® Assay incorporates a fluorometric/colorimetric growth indicator based on detection of metabolic activity. Specifically, the system incorporates an oxidation-reduction (REDOX) indicator that both fluoresces and changes color in response to chemical reduction of growth medium resulting from cell growth.

[1] = tested on: resistant NCI-H1581 cells; test: Alamar blue proliferation assay, resistant NCI-H1581 cells; assay type: cell-based; conditions: for IC50: Resistant cells, 4 days incubation, repeated experiments
Method: The insensitive cells were isolated and profiled with the aim to determine the active signaling pathways that act as drivers for their survival and/or proliferation. Therefore, NCI-H1581 cells were plated onto 10 cm Collagen I coated plates and placed in an incubator at 37° C., 5% CO2. […] In the case of the parental cells with or without DMSO control, when the cells reached the confluence close to 100% they were trypsinized and re-plated back on the plate. In the compound treated plates outgrowth of resistant clones were observed. After about 3 weeks from the initial treatment, cells were taken out of the plate by trypsinization and passaged on new plate for further expanding. […] (test 1)
as §2, with “tested. […] Parental NCI-H1581 cells had very low detectable levels of Met protein, and no signal for Met protein phosphorylation (see FIG. 1).” for “tested.”
as §3, §4, §5, §6, §7

[2] = tested on: Parental, unsorted H1581 cells; test: Incucyte live cell imaging proliferation, parental unsorted H1581 cells; assay type: cell-based; design: dose or concentration left out as unconfirmed; conditions: four days
Method: Inhibition of growth of H1581^MET(+) cells by combination of FGFR and MET inhibitors. Parental, unsorted H1581 cells, and sorted H1581^Met(+) cells, subpopulation of H1581 cells that have high Met expression, were plated at 75000 cells per well in 24 well plate. […] Images were acquired every two hours. Proliferation of cells was presented as the mean of percentage of confluence±SD (n=2).

NCI-H1581 cells = test: Incucyte proliferation (confluence over time), prolonged treatment of NCI-H1581 cells; assay type: cell-based; conditions: 1 microM each agent
Method: as §1
The proliferation of the cells was followed using the Incucyt machine, measuring the confluence of the cells over time.

[3] = tested on: resistant NCI-H1581 xenografts; test: In vivo study, resistant NCI-H1581 xenografts; design: species or system Athymic nude mice; conditions: compound A 25 mg/kg p.o. QD for 37 d
Method: Athymic nude mice were inoculated with resistant NCI-H1581 cells (10e^6 cells/200 μl with matrigel, ratio 1:1, into the inguinal region of the mice).
All mice (84) were put into groups (4) and treated from the day of the cell injection.
The mice were treated orally (po), normal volume (250 μl/25 g) once daily and this for 37 days (QD×37). Measurement of the tumor volume was done at day 0, 5, 12, 15, 20, 23, 27, 30, 33, 37.
At day 37 all animals were sacrificed.

[4] = tested on: most sensitive cancer cell lines; test: Alamar blue cell based proliferation assay, most sensitive cancer cell lines
Method: as §3, §4, §5, §6, §7

Met oncogene = test: Microarray gene expression profiling of resistant versus parental NCI-H1581 cells; assay type: cell-based; conditions: 1 microM, 1 day, 1 week and 2 weeks
Method: as §1

Met protein = test: Western blotting of Met phosphorylation in resistant NCI-H1581 cells; assay type: cell-based; conditions: 300 nM, 30 minutes
Method: FIG. 1: Western blotting of protein lysates derived from parental and resistant NCI-H1581 cells treated without (−) or with (+) Met inhibitor, 300 nM compound C, for 30 minutes.
as §2, with “tested. […] Parental NCI-H1581 cells had very low detectable levels of Met protein, and no signal for Met protein phosphorylation (see FIG. 1).” for “tested.”

[5] = Homo sapiens, NCI-H1581, 96 h, Parental cells

IC50 ([1]; Homo sapiens, NCI-H1581, 96 h) | IC50 [1] | Structure (SMILES) | IC50 (parental NCI-H1581 cells; [5]) | proliferation of the parental NCI-H1581 cells (in words) (parental NCI-H1581 cells) | proliferation of the resistant NCI-H1581 cells (in words) [1] | other results
0.198 µM | 0.165 µM | C[C@@H](Oc1cc(-c2cnn(C3CCNCC3)c2)cnc1N)c1c(Cl)ccc(F)c1Cl [crizotinib, reference compound] | 6.91 µM |  |  | IC50 (parental NCI-H1581 cells; Parental cells): 4.95 µM
 |  | COc1cc(OC)cc(N(CCNC(C)C)c2ccc3ncc(-c4cnn(C)c4)nc3c2)c1 [compound A, N-(3,5-dimethoxyphenyl)-N′-(1-methylethyl)-N-[3-(1-methyl-1H-pyrazol-4-yl)quinoxalin-6-yl]ethane-1,2-diamine] |  |  |  | cell growth (confluence) [2]: equally inhibited; emergence of resistance (outgrowth of insensitive cells) (NCI-H1581 cells; continuous treatment): after about three weeks emerging outgrowth of compound insensitive cells was observed; tumor growth [3]: did not have effect on tumor growth
0.341 µM | 0.444 µM | FC(F)(c1ccc2ncccc2c1)c1nnc2ccc(-c3ccncc3)nn12 [compound D, 6-[Difluoro(6-pyridin-4-yl[1,2,4]triazolo[4,3-b]pyridazin-3-yl)methyl]quinoline] | > 10 µM | but not of the parental NCI-H1581 cells | strongly inhibited | proliferation (confluence of the cells over time) (NCI-H1581 cells): did not impact the proliferation; IC50 (parental NCI-H1581 cells; Homo sapiens, NCI-H1581, 96 h, Parental cells + DMSO): > 30 µM
 |  | COc1cc(OC)c(F)c(N(Cc2ncc[nH]2)c2ccc3ncc(-c4cnn(C)c4)nc3n2)c1 [compound B, N-(2-fluoro-3,5-dimethoxyphenyl)-N-(1H-imidazol-2-ylmethyl)-3-(1-methyl-1H-pyrazol-4-yl)pyrido[2,3-b]pyrazin-6-amine] |  |  |  | IC50 [4]: < 0.01 µM; Met oncogene expression (microarray) (Met oncogene): upregulated in a time dependent manner
 |  | Cn1cc(-c2ccc3nnc(C(F)(F)c4ccc5ncccc5c4)n3n2)cn1 [compound C, 6-{Difluoro[6-(1-methyl-1H-pyrazol-4-yl)[1,2,4]triazolo[4,3-b]pyridazin-3-yl]methyl}quinoline] | > 30 µM | but not of the parental NCI-H1581 cells | strongly inhibited | Met phosphorylation (Met protein): down regulated significantly
